For 33 molecules, IC50 results are on record in patent publication US20230339866A1, “Quinazoline compounds and the use thereof in the treatment of cancer” (TROBIO THERAPEUTICS PTY LTD, priority 2020, published 2023).

Format in all cases: cell-based
Test [1] deals with A2780 (ovarian). Briefly: Anti-proliferative activity (Cell-Titre luminescence) against A2780 ovarian cancer cells. The following applies: Homo sapiens, A2780, 72 h, 72 h exposure, Cell-Titre luminescent reagent. The method in brief:
(§1)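 EC50 derived by nonlinear variable-slope sigmoidal fit of luminescent Cell-Titre viability, normalised to vehicle control. Compound (0.1–30 μM, six concentrations) applied for 72 h after 24 h attachment at 37 °C, 5% CO2.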

Test [2] deals with SK-N-SH neuroblastoma cells. The test is described as follows: Anti-proliferative activity (MTS assay) against SK-N-SH neuroblastoma cells. The following applies: Homo sapiens, SK-N-SH, 72 h. Here is the method: The ability of compounds of the disclosure to inhibit the proliferation of SK-N-SH neuroblastoma cells was also assessed. […] Cell viability was normalised to control (vehicle alone) and dose response curves and IC50 values (Table 4) were determined using Graph Pad Prism 6.
Background: Tetrazolium assays rely on reduction of a dye to a coloured formazan, in cell work by metabolically active cells.

Test [3] relates to A549 (NSCLC). The test is described as follows: Anti-proliferative activity (Cell-Titre luminescence) against A549 non-small cell lung cancer cells. The following applies: Homo sapiens, A549, 72 h, 72 h exposure, Cell-Titre luminescent reagent. The method in brief:
as §1

As usually defined, the IC50 is the midpoint of a concentration-inhibition curve. Higher therefore signals lower potency.

Turning to `CN(C)CCNc1nc(-c2cc[nH]c2)nc2ccccc12` [Compound 98, N^1-(2-(1H-pyrrol-3-yl)quinazolin-4-yl)-N^2,N^2-dimethylethane-1,2-diamine], the IC50 in test [1] came to 1.03 µM; in test [2] it was 3.93 µM; in test [3], 5.21 µM.
For `CN1CCN(CCNc2nc(NCCc3cccc(Cl)c3)nc3ccccc23)CC1` [Compound 125, N^2-(3-chlorophenethyl)-N^4-(2-(4-methylpiperazin-1-yl)ethyl)quinazoline-2,4-diamine], the IC50 in test [1] came to 0.968 µM; in test [2] it was 0.73 µM; in test [3], 1.62 µM.
The like results for `OCCNc1nc(NCc2ccccc2)nc2ccccc12` [Compound 31, 2-((2-(benzylamino)quinazolin-4-yl)amino)ethan-1-ol] were, in that order, 1.21 µM, 14.3 µM and 3.61 µM.
Taken in the same sequence, the figures for `CCc1ccc(CCNc2nc(NCCO)c3ccccc3n2)cc1` [Compound 89, 2-((2-((4-ethylphenethyl)amino)quinazolin-4-yl)amino)ethan-1-ol] were 2.73 µM, 3.48 µM and 6.1 µM.
On to `CN1CCN(CCNc2nc(NCCc3ccc(C(C)(C)C)cc3)nc3ccccc23)CC1` [Compound 129, N^2-(4-(tert-butyl)phenethyl)-N^4-(2-(4-methylpiperazin-1-yl)ethyl)quinazoline-2,4-diamine], for which the IC50 in test [1] was found to be 0.316 µM; in test [2], 0.42 µM; in test [3], 1 µM.
In the case of `CN1CCN(CCNc2nc(NCCc3cccc(C(F)(F)F)c3)nc3ccccc23)CC1` [Compound 51, N^4-(2-(4-methylpiperazin-1-yl)ethyl)-N^2-(3-(trifluoromethyl)phenethyl)quinazoline-2,4-diamine], the IC50 is 1.39 µM in test [1], 1.4 µM in test [2] and 3.07 µM in test [3].
Consider `CC(C)C(CNc1nc(-c2cc[nH]c2)nc2ccccc12)N1CCN(C)CC1` (stereo not drawn) [Compound 5, N-(3-methyl-2-(4-methylpiperazin-1-yl)butyl)-2-(1H-pyrrol-3-yl)quinazolin-4-amine], for which the IC50 in test [1] worked out at 0.901 µM; in test [2] it was 1.87 µM; in test [3], 2.74 µM.
As to `CN(C)CCNc1nc(-c2ccc[nH]2)nc2ccccc12` [Compound 97, N^1-(2-(1H-pyrrol-2-yl)quinazolin-4-yl)-N^2,N^2-dimethylethane-1,2-diamine], the figures for the IC50 in test [1], in test [2] and in test [3] were 3.07 µM, 8.54 µM and 4.99 µM, respectively.
The like results for `COc1ccc(CCNc2nc(NCCN3CCN(C)CC3)c3ccccc3n2)cc1` [Compound 54, N^2-(4-methoxyphenethyl)-N^4-(2-(4-methylpiperazin-1-yl)ethyl)quinazoline-2,4-diamine] were, in that order, 3.8 µM, 1.15 µM and 4.65 µM.
In the case of `CN1CCN(CCNc2nc(Nc3cccc(F)c3)nc3ccccc23)CC1` [Compound 56, N^2-(3-fluorophenyl)-N^4-(2-(4-methylpiperazin-1-yl)ethyl)quinazoline-2,4-diamine], the IC50 in test [1] turned out to be 1.01 µM; in test [2], 3.68 µM; in test [3] it was 8.5 µM.
For `FC(F)(F)c1cccc(CCNc2nc(NCCc3c[nH]cn3)c3ccccc3n2)c1` [Compound 84, N^4-(2-(1H-imidazol-4-yl)ethyl)-N^2-(3-(trifluoromethyl)phenethyl)quinazoline-2,4-diamine], the IC50 in test [1] stood at 1.51 µM; in test [2] it was 1.26 µM; in test [3], 1.39 µM.
As to `CCc1ccc(Nc2nc(NCCc3c[nH]cn3)c3ccccc3n2)cc1` [Compound 81, N^4-(2-(1H-imidazol-4-yl)ethyl)-N^2-(4-ethylphenyl)quinazoline-2,4-diamine], the IC50 in test [1] worked out at 1.2 µM; in test [2], 3.82 µM; in test [3] it was 3.1 µM.
In the case of `Fc1cccc(Nc2nc(NCCc3c[nH]cn3)c3ccccc3n2)c1` [Compound 82, N^4-(2-(1H-imidazol-4-yl)ethyl)-N^2-(3-fluorophenyl)quinazoline-2,4-diamine], the figures for the 50% inhibitory concentration (IC50) in test [1], in test [2] and in test [3] were 1.88 µM, 4.46 µM and 7.46 µM, respectively.
Taken in the same sequence, the figures for `CN(C)CCCNc1nc(NCCc2cccc(F)c2)nc2ccccc12` [Compound 77, N^4-(3-(dimethylamino)propyl)-N^2-(3-fluorophenethyl)quinazoline-2,4-diamine] were 3.49 µM, 2.36 µM and 3.04 µM.
For the molecule `COc1ccc(CCNc2nc(NCCCN(C)C)c3ccccc3n2)cc1` [Compound 75, N^4-(3-(dimethylamino)propyl)-N^2-(4-methoxyphenethyl)quinazoline-2,4-diamine], the IC50 in test [1] was 0.467 µM; in test [2], 1.47 µM; in test [3], 1.49 µM.
With `CCc1ccc(Nc2nc(NCCN3CCN(C)CC3)c3ccccc3n2)cc1` [Compound 55, N^2-(4-ethylphenyl)-N^4-(2-(4-methylpiperazin-1-yl)ethyl)quinazoline-2,4-diamine], the IC50 came to 7.16 µM in test [1] and 4.45 µM in test [3].
For `CN1CCN(CCNc2nc(NCc3ccc(C(F)(F)F)cc3)nc3ccccc23)CC1` [Compound 47, N^4-(2-(4-methylpiperazin-1-yl)ethyl)-N^2-(4-(trifluoromethyl)benzyl)quinazoline-2,4-diamine], the results for the IC50 in test [1] and in test [3] were 6.13 µM and 3.28 µM, respectively.
Taken in the same sequence, the figures for `COc1cccc(Nc2nc(NCCO)c3ccccc3n2)c1` [Compound 29, 2-((2-((3-methoxyphenyl)amino)quinazolin-4-yl)amino)ethan-1-ol] were 6.91 µM and 9.21 µM.
For the molecule `CN1CCN(CCNc2nc(-c3ccoc3)nc3ccccc23)CC1` [Compound 15, 2-(furan-3-yl)-N-(2-(4-methylpiperazin-1-yl)ethyl)quinazolin-4-amine], the IC50 in test [1] and in test [3] was greater than 30 µM throughout.
Consider `CCc1ccc(CCNc2nc(NCCN(C)C)c3ccccc3n2)cc1` [Compound 66, N^4-(2-(dimethylamino)ethyl)-N^2-(4-ethylphenethyl)quinazoline-2,4-diamine], for which the IC50 in test [1] is 13.7 µM; in test [3] it was greater than 30 µM.
With `c1csc(-c2nc(NCCc3c[nH]cn3)c3ccccc3n2)c1` [Compound 104, N-(2-(1H-imidazol-4-yl)ethyl)-2-(thiophen-2-yl)quinazolin-4-amine], the IC50 in test [1] and in test [3] was greater than 30 µM throughout.
Take `OCCCNc1nc(NCCc2cccc(F)c2)nc2ccccc12` [Compound 94, 3-((2-((3-fluorophenethyl)amino)quinazolin-4-yl)amino)propan-1-ol]: the IC50 was determined as 4.59 µM in test [1] and 5.57 µM in test [3].
Taken in the same sequence, the figures for `OCCNc1nc(-c2ccoc2)nc2ccccc12` [Compound 23, 2-((2-(furan-3-yl)quinazolin-4-yl)amino)ethan-1-ol] were greater than 30 µM and greater than 30 µM.
As for `CC(C)C(CNc1nc(-c2ccc[nH]2)nc2ccccc12)N1CCN(C)CC1` (stereo not drawn) [Compound 4, N-(3-methyl-2-(4-methylpiperazin-1-yl)butyl)-2-(1H-pyrrol-2-yl)quinazolin-4-amine], the IC50 worked out at 8.3 µM in test [1] and 8.56 µM in test [3].
Taken in the same sequence, the figures for `OCCCNc1nc(-c2cc[nH]c2)nc2ccccc12` [Compound 110, 3-((2-(1H-pyrrol-3-yl)quinazolin-4-yl)amino)propan-1-ol] were 4.87 µM and 9.19 µM.
Consider `COc1ccc(CCNc2nc(NCCO)c3ccccc3n2)cc1` [Compound 39, 2-((2-((4-methoxyphenethyl)amino)quinazolin-4-yl)amino)ethan-1-ol], for which the results for the IC50 in test [1] and in test [3] were 11.9 µM and greater than 30 µM, respectively.
The like results for `CN1CCN(CCNc2nc(NCCc3cccnc3)nc3ccccc23)CC1` [Compound 145, N^4-(2-(4-methylpiperazin-1-yl)ethyl)-N^2-(2-(pyridin-3-yl)ethyl)quinazoline-2,4-diamine] were, in that order, 10.9 µM and greater than 30 µM.
Take `c1ccc2c(NCCc3c[nH]cn3)nc(-c3cc[nH]c3)nc2c1` [Compound 107, N-(2-(1H-imidazol-4-yl)ethyl)-2-(1H-pyrrol-3-yl)quinazolin-4-amine]: the values for the IC50 in test [1] and in test [3] were 1.95 µM and 9.4 µM, respectively.
Regarding `CN1CCN(CCNc2nc(NCCc3ccc(C#N)cc3)nc3ccccc23)CC1` [Compound 131, 4-(2-((4-((2-(4-methylpiperazin-1-yl)ethyl)amino)quinazolin-2-yl)amino)ethyl)benzonitrile], the IC50 in test [1] came out at 3 µM; in test [3], 11.5 µM.
The like results for `OCCNc1nc(-c2cc[nH]c2)nc2ccccc12` [Compound 21, 2-((2-(1H-pyrrol-3-yl)quinazolin-4-yl)amino)ethan-1-ol] were, in that order, greater than 30 µM and greater than 30 µM.
Turning to `CN1CCN(CCNc2nc(-n3cccc3)nc3ccccc23)CC1` [Compound 17, N-(2-(4-methylpiperazin-1-yl)ethyl)-2-(1H-pyrrol-1-yl)quinazolin-4-amine], the IC50 in test [1] is 22.7 µM; in test [3] it was greater than 30 µM.
For `NCCCNc1nc(NCCc2cccc(C(F)(F)F)c2)nc2ccccc12` [Compound 119, N^4-(3-aminopropyl)-N^2-(3-(trifluoromethyl)phenethyl)quinazoline-2,4-diamine], the IC50 in test [1] was 0.759 µM; in test [3], 2.46 µM.
For the molecule `COc1ccc(Nc2nc(NCCO)c3ccccc3n2)cc1` [Compound 30, 2-((2-((4-methoxyphenyl)amino)quinazolin-4-yl)amino)ethan-1-ol], the IC50 in test [1] and in test [3] was greater than 30 µM in each case.
